Laboratory results as given in patent publication US20100234310A1, “ESTROGENIC COMPOUNDS AND THEIR METHODS OF USE” (Bionovo, Inc., priority 2009, published 2010).

What was measured:
ER-β = molecular target: T1, ER-β (Homo sapiens, UniProt Q92731); assay: ER-β specific assay: ER-β plasmid co-transfected with TNF-RE-tk-Luc or ERE-tk-Luc; assay type: cell-based
T1 construct: expressed in transfected cells
Protocol: Purified compounds were analyzed by LC-MS and NMR and data was compared to data acquired from authentic purchased standards.

breast cancer cells = assay: Activity in cancerous cells, in particular breast cancer cells, in vitro; assay type: cell-based

T1 sequence (Q92731 whole entry, species assumed): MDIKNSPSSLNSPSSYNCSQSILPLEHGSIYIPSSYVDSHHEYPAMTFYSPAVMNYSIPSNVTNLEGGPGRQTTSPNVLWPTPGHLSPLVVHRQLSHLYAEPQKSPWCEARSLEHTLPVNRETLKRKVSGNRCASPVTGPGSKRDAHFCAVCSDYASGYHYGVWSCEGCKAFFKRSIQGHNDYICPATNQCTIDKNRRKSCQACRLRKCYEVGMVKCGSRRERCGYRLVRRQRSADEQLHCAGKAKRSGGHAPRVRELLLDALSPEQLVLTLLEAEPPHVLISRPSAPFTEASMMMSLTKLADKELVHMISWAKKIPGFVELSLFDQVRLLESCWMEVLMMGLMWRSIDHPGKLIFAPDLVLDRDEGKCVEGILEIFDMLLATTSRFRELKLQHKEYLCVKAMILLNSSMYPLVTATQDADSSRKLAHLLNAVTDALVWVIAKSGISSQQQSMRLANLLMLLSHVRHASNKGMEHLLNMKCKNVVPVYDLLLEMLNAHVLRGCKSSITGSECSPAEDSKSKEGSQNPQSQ

| estrogenic activity (ER-β-specific) (ER-β) | SMILES | generation of reactive oxygen species (breast cancer cells) | generation/induction of superoxide (breast cancer cells) | induction of apoptosis (breast cancer cells) | induction of cell death (breast cancer cells) | induction of mitochondrial superoxide (breast cancer cells) |
| --- | --- | --- | --- | --- | --- | --- |
| estrogenic activity | O=C1CC(c2ccc(O)cc2)Oc2cc(O)cc(O)c21 (stereo not shown) [Narigenin] | – | – | – | – | – |
| estrogenic activity | O=c1cc(-c2ccc(O)c(O)c2)oc2cc(O)cc(O)c12 [Luteolin] | active | active | active | active | active |
| estrogenic activity | O=c1c(O[C@@H]2O[C@H](CO)[C@@H](O)[C@H](O)[C@H]2O)c(-c2ccc(O)c(O)c2)oc2cc(O)cc(O)c12 [Quercetin-3-O-β-glucopyranoside] | – | – | – | – | – |

Continued, compound first:

| SMILES | estrogenic activity (ER-β-specific) (ER-β) | generation of reactive oxygen species (breast cancer cells) | generation/induction of superoxide (breast cancer cells) | induction of apoptosis (breast cancer cells) | induction of cell death (breast cancer cells) | induction of mitochondrial superoxide (breast cancer cells) |
| --- | --- | --- | --- | --- | --- | --- |
| O=c1c(O)c(-c2ccc(O)c(O)c2)oc2cc(O)cc(O)c12 [Quercetin] | estrogenic activity | – | – | – | – | – |
| O=c1cc(-c2ccc(O)cc2)oc2cc(O)cc(O)c12 [Apigenin] | – | – | – | active | active | active |
| C[C@@H]1O[C@@H](Oc2c(-c3ccc(O)c(O)c3)oc3cc(O)cc(O)c3c2=O)[C@H](O)[C@H](O)[C@H]1O [Quercetrin] | estrogenic activity | – | – | – | – | – |
